Measurements as given in publication PMC10545747, “Development of cyclopeptide inhibitors of cGAS targeting protein-DNA interaction and phase separation” (Nature Communications, 2023).
Values joined by “and” are separate entries in the source; they are usually repeats but may differ in a detail not shown here. Equal entries are not always repeated. “Also recorded” adds a separate entry of the source. Square brackets hold non-standard residues; d marks the D form. Peptide text beside a SMILES is read from it.

Assays:
Trex1^-/- BMDMs = assay: qPCR of Ifnb1, Cxcl10, Il6 mRNA in Trex1-deficient macrophages; format: cell-based, mouse; design: key to Ifnb1 mRNA level (Fig. 7a) / Cxcl10 mRNA level (Fig. 7a) / Il6 mRNA level (Fig. 7a): fold change relative to WT BMDM group
Protocol: Fold changes are relative to WT BMDM group. p = 0.002 (Ifnb1); p = 0.008 (Cxcl10); p = 0.0005 (Il6). b Schematic representation illustrating the experimental design in the Trex1^-/- mice model of autoimmune diseases. c Survival curves of WT and Trex1^−/− mice treated with DMSO or XQ2B (10 mg/kg) every other day for 11 consecutive days (n = 10 mice per group). p = 0.0352. d WT mice (n = 6) or Trex1^-/- mice (n = 6) were injected intravenously with DMSO or 10 mg/kg XQ2B every other day for 7 consecutive days. Representative H&E-stained tissue sections from WT or Trex1^-/- mice treated with DMSO or XQ2B. The panels are at ×20 magnification. […] Scale bar, 50 μm. Data are representative of two independent experiments with similar results in (f), or three independent experiments in (a) or two independent experiments in (d, e). […] Source data are provided as a Source Data file.
The indicated cells were stimulated with either ISD (Sangon Biotech), HSV-1 (Provided by Dr. Zhengfan Jiang), HSV60mer (Sangon Biotech), SATE-cddA[70], 2’3’-cGAMP (Invivogen, Cat# tlrl-nacga23-1), ADU-S100 (MedChemExpress, Cat# HY-12885A) or Poly(I:C) (Invivogen, Cat# tlrl-pic) after XQ2 or XQ2B treatment. Total RNA was isolated from indicated cells that incubated with the drugs for indicated time or mice tissues by using NucleoZOL reagent (MACHEREY-NAGEL) according to the manufacturer’s instructions. The quantifications of mRNA levels were carried out by real-time PCR using a PerfectStart® Uni RT&qPCR Kit (TransGen Biotech) on the QuantStudio 5 qPCR machine (Applied Biosystems). Samples were carried out in triplicate and the target CT values were normalized to GAPDH CT values. Primers of qPCR used in this study can be found in Supplementary Table S2.
C57BL/6 6–8 weeks old wild type (WT) mice were purchased from Gempharmatech. C57BL/6 Trex1^+/- mice were purchased from Cyagen. Trex1^-/- mice were generated by further mating the male and female Trex1^+/- mice, and 8-week-old male Trex1^-/- mice were used in the experiment. Mice were housed in groups of up to 5 mice/cage at 18 °C − 24 °C ambient temperatures with 40–60% humidity. Mice were maintained on a 12 h light/ dark cycle 6 am to 6 pm. Food and water were available ad libitum. Femurs and tibias were removed from sex-matched mice of 6–8 weeks old, and the ends were clipped. Marrow was pushed from bones by using a syringe, and cell clumps were broken apart into cell particles by pipetting in PBS, and passed through a 70 μm cell strainer. Cells were resuspended in red blood cell lysis buffer (Solarbio) for 5 min after being centrifuged with 200 × g for 5 min, and were resuspended in cell culture media (DMEM) with an additional M-CSF (50 ng/ml) after centrifugation, and then were seeded into a 12-well plate. […]

hcGAS-FL (D191R) mutant = biological target: T1, hcGAS-FL (D191R) mutant (Homo sapiens, UniProt Q8N884, D191R); assay: Surface plasmon resonance (SPR); format: binding
T1 construct: The gene encoding full-length human cGAS (hcGAS-FL); 6xHis-SUMO (N, cleaved yes); made in house; host or cells: Escherichia coli BL21 (DE3)
T1 sequence (Q8N884 whole entry D191R): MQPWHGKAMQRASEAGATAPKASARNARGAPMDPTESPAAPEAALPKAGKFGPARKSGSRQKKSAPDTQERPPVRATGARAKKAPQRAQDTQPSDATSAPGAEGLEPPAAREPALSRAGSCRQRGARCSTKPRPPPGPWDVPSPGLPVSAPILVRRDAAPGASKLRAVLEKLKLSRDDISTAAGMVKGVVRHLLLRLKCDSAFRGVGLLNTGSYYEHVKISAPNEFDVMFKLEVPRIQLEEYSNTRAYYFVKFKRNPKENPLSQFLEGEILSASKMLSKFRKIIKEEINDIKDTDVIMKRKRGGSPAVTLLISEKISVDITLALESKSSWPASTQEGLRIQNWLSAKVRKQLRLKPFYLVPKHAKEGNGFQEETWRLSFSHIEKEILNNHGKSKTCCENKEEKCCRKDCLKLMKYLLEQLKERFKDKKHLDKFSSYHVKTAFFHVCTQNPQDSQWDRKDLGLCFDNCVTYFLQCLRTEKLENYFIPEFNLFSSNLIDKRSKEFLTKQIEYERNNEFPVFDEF
Protocol: All SPR binding studies were performed with a Biacore 8 K instrument (GE Healthcare Life Sciences). hcGAS-FL / hcGAS-ΔN (1 mg mL^−1) was immobilized in a CM5 chip by EDC/NHS method. The tested peptide was diluted with running buffer (20 mM HEPES, pH 7.5, 125 mM KCl,10 mM MgCl2). All the samples contained the same concentration of DMSO (0.5%). The tested peptide was injected at a flow rate of 30 μL min^−1 for 200 s of association, followed by 200 s of disassociation at 25 °C. The final graphs were obtained by subtracting blank sensorgrams. The data were analyzed with Biacore Insight Evaluation software.
Supplementary Fig. 5. The binding site of XQ2 may locate at the cGAS-dsDNA interface. (a) The 2D schematic of docked structure of XQ2 with cGAS (PDB ID: 4O69). (b) Structure activity relationship (SAR) analysis of XQ2 a nd its analogues based on the docked structure of the peptides with cGAS. (c) FAM-ISD (40nM) was incubated with the indicated doses of hcGAS-FL or hcGAS-FL (D191R) mutant, and the polarization signal was detected by a microplate reader. (d) SPR analysis of the binding of hcGAS-FL (D191R) mutant with XQ2. The binding affinity (Kd) […]
Data are representative of three independent experiments in (c). (Data […]
Source data are provided as a Source Data file.
XQ- Sequence Inhibition % […]

[1] = biological target: T2, hcGAS-FL (D191R) mutant + FAM-ISD (Homo sapiens, UniProt Q8N884, D191R); assay: Fluorescence polarization competition of FAM-ISD binding
T2 construct: The gene encoding full-length human cGAS (hcGAS-FL); 6xHis-SUMO (N, cleaved yes); made in house; host or cells: Escherichia coli BL21 (DE3)
T2 sequence (Q8N884 whole entry D191R): as above
Source text: Samples were dispensed in 30 μ L final volumes per well into a 384-well flat-bottom black plate (Corning 3575). The polarization was detected by a microplate reader (BioTek Synergy H1) with a fluorescence polarization filter cube (excitation wavelength: 485 ± 10 nm; emission wavelength: 528 ± 10 nm) immediately.

hcGAS-FL and Cy3-ISD = biological target: T3, hcGAS-FL and Cy3-ISD (Homo sapiens, UniProt Q8N884); assay: In vitro phase separation assay (cGAS-DNA condensates); format: biochemical; settings: for Droplets (%), Fig. S6b: hcGAS-FL 100nM, Cy3-ISD 100nM; for Droplets (%), Fig. 4e: hcGAS-FL 500 nM, Cy3-ISD 500 nM; for Droplets (%), Fig. S6d: hcGAS-FL 1 μM, Cy3-ISD 1 μM
T3 construct: The gene encoding full-length human cGAS (hcGAS-FL); 6xHis-SUMO (N, cleaved yes); made in house; host or cells: Escherichia coli BL21 (DE3)
T3 sequence (Q8N884 whole entry): as the sequence (Q8N884 whole entry D191R) above, with R191D counted along it
Protocol: Purified hcGAS-FL and Cy3-labeled DNA (Cy3-ISD) with the indicated concentrations were mixed with DMSO (0.1%) or indicated doses of XQ2 in 96-well plates (JingAn Biological) pre-coated with 20 mg/ml BSA (Sigma). Mixtures were incubated in buffer (20 mM Tris-HCl, pH 7.5, 150 mM NaCl and 1 mg/ml BSA) with standing at 37 °C in a total reaction volume of 50 μL. Phase-separated droplets were imaged at the indicated time by using Nikon A1R+ confocal microscope with a 60× oil objective, Nikon A1 camera, and X-Cite 120LED laser. Images were analyzed using FIJI software. The number of droplets was measured as the percentage of the imaging area occupied by Cy3-labeled components, and was plotted using GraphPad Prism 8.

In the case of `CC(C)C[C@@H]1NC(=O)[C@H](CCCNC(=N)N)NC(=O)[C@H](C(C)C)NC(=O)[C@@H]2CCCN2C(=O)[C@@H](Cc2ccccc2)NC(=O)[C@H](CC(C)C)NC(=O)[C@H](CCCNC(=N)N)NC(=O)[C@H]([C@@H](C)O)NC(=O)[C@H](C)NC(=O)[C@@H](Cc2ccccc2)NC1=O` [XQ2B] (cyclo([dF]ATRL[dF]PVRL)), the “expression of Ifnb1, Cxcl10 and Il6 in Trex1^-/- BMDMs” value (Trex1^-/- BMDMs; 10 μM, 24 h) is reported as “significantly suppressed the expression of Ifnb1, Cxcl10 and Il6 in Trex1^-/- BMDMs”, the “Cxcl10 mRNA level (Fig. 7a)” value (Trex1^-/- BMDMs; Trex1-/- BMDMs, XQ2B vs DMSO) is reported as 8.243 and 7.282 and 8.602 and the “Ifnb1 mRNA level (Fig. 7a)” value (Trex1^-/- BMDMs; Trex1-/- BMDMs, XQ2B vs DMSO) is reported as 2.99 and 2.308 and 2.77. For the same molecule, the “Il6 mRNA level (Fig. 7a)” value (Trex1^-/- BMDMs; Trex1-/- BMDMs, XQ2B vs DMSO) was 7.711 and 7.588 and 8.111.
For `CC(C)C[C@@H]1NC(=O)[C@H](CCCNC(=N)N)NC(=O)[C@H](C(C)C)NC(=O)[C@@H]2CCCN2C(=O)[C@@H](Cc2ccccc2)NC(=O)[C@H](CC(C)C)NC(=O)[C@H](CCCNC(=N)N)NC(=O)[C@H](C(C)C)NC(=O)[C@H](C)NC(=O)[C@@H](Cc2ccccc2)NC1=O` [XQ2, Cyclo (LfAVRLfPVR)] (cyclo(L[dF]AVRL[dF]PVR)), the “binding to hcGAS-FL (D191R), SPR” value (hcGAS-FL (D191R) mutant) was “markedly reduced the binding affinity of XQ2 with cGAS; also recorded: could not be determined by saturation binding”, the “inhibition of dsDNA binding to hcGAS-FL (D191R), FP” value [1] was “markedly reduced” and the “DNA-induced liquid phase condensation of cGAS” value (hcGAS-FL and Cy3-ISD) was “efficiently suppressed DNA-induced liquid phase condensation of cGAS in a dose-dependent manner”. For the same molecule, the “Droplets (%), Fig. S6b” value (hcGAS-FL and Cy3-ISD; XQ2 10 μM) was 33.0922% and 37.8074% and 43.9421%, the “Droplets (%), Fig. S6b” value (hcGAS-FL and Cy3-ISD; XQ2 20 μM) was 10.262% and 16.2032% and 13.5624% and the “Droplets (%), Fig. S6b” value (hcGAS-FL and Cy3-ISD; XQ2 40 μM) was 8.642% and 8.102% and 4.321%. The “Droplets (%), Fig. 4e” value (hcGAS-FL and Cy3-ISD; 30 min 37 °C, XQ2 10 μM) was 73.0692% and 66.6865% and 62.8824%, the “Droplets (%), Fig. 4e” value (hcGAS-FL and Cy3-ISD; XQ2 20 μM) was 40.7983% and 55.7848% and 51.751% and the “Droplets (%), Fig. 4e” value (hcGAS-FL and Cy3-ISD; XQ2 40 μM) was 25.4542% and 20.5523% and 21.4459%. For the same molecule, the “Droplets (%), Fig. S6d” value (hcGAS-FL and Cy3-ISD; XQ2 10 μM) was 79.2214% and 80.5313% and 77.1189%, the “Droplets (%), Fig. S6d” value (hcGAS-FL and Cy3-ISD; XQ2 20 μM) was 68.3204% and 65.6495% and 68.2188% and the “Droplets (%), Fig. S6d” value (hcGAS-FL and Cy3-ISD; XQ2 40 μM) was 48.2853% and 49.5952% and 47.6049%.
